Data on 31 molecules can be found in patent US10766864B2, “Morphinan derivatives for the treatment of neuropathic pain” (Nektar Therapeutics, priority 2015, dated 2020).

One assay concerns the target mu opioid receptor (MOR) (Homo sapiens (Human), UniProt P35372). In words: Competitive radioligand binding at MOR ([3H] Naloxone). As to the method:
(§1) Receptor Binding at MOR and NMDA.
(§2) Affinities of various compounds were measured in vitro using competitive radioligand binding assays. Serial dilutions of test compounds were incubated with membranes prepared from CHO-K1 cells expressing the mu opioid receptor (MOR; for opioid receptor binding) or rat forebrain membranes (for NMDA receptor binding). 2 nM [^3H] Naloxone (MOR) or 0.2 nM [^3H] MK801 (NMDA) were used as the specific, competitive radioligands. 10 uM Naloxone (MOR), or 10 uM MK801 (NMDA) was used to determine non-specific binding. Bound radioactivity was measured using a scintillation counter & IC50 values for test compounds were determined by non-linear regression analysis using a one-site competition model (Graph Pad Prizm). Due to each test compound being solubilized in a buffered system for the assay, the results presented herein reflect the free base activity.

The next assay deals with NMDA receptor. In words: Competitive radioligand binding at NMDA receptor ([3H] MK801), rat forebrain membranes. The conditions noted are these: 0.2 nM [3H] MK801, reflects free base activity. The method, then:
as §1, §2

The mark [1] stands for this setting: membranes from CHO-K1 cells expressing MOR, 2 nM [3H] Naloxone, reflects free base activity, read-out: MOR IC50.

The structures appear in SMILES notation. Like-named read-outs stand apart in the source and are kept apart here.

Take `COCCOCCOc1ccccc1Nc1ccc2c(c1)[C@@]13CCCC[C@H]1[C@@H](C2)N(C)CC3` [Compound 35, N-{2-[2-(2-methoxyethoxy)ethoxy]phenyl}-17-methylmorphinan-3-amine]: the IC50 at mu opioid receptor (MOR) (setting [1]) was 0.1 to 1 µM; at NMDA receptor it was over 10 µM.

As for `CN1CC[C@]23CCCC[C@H]2[C@H]1Cc1ccc(Nc2cncnc2)cc13` [Compound 53, 17-methyl-N-(pyrimidin-5-yl)morphinan-3-amine], the IC50 was 0.01 to 0.1 µM at mu opioid receptor (MOR) and over 10 µM on NMDA receptor.

As to `COCCNC(=O)Nc1ccc2c(c1)[C@@]13CCCC[C@H]1[C@@H](C2)N(C)CC3` [Compound 23, 1-(2-methoxyethyl)-3-(17-methylmorphinan-3-yl)urea], the IC50 at mu opioid receptor (MOR) is 0.1 to 1 µM; at NMDA receptor it was over 10 µM.

Consider `CN1CC[C@]23CCCC[C@H]2[C@H]1Cc1ccc(Nc2ccnnc2)cc13` [Compound 56, 17-methyl-N-(pyridazin-4-yl)morphinan-3-amine], for which the results for the IC50 on mu opioid receptor (MOR) and on NMDA receptor were 0.1 to 1 µM and 0.0001 to 0.1 µM, respectively.

`COCCOCCOCCOCCOCCOCC(=O)Nc1ccc2c(c1)[C@@]13CCCC[C@H]1[C@@H](C2)N(C)CC3` [Compound 42, N-(17-methylmorphinan-3-yl)-2,5,8,11,14,17-hexaoxanonadecan-19-amide]: the IC50 on mu opioid receptor (MOR) (setting [1]) was 0.1 to 1 µM; on NMDA receptor, over 10 µM.

`COCCOCCOCCOCCOCCO[C@H]1CC[C@H]2[C@H]3Cc4ccc(OC)cc4[C@@]2(CCN3C)C1` [Compound 2, (6α)-3-methoxy-17-methyl-6-(2,5,8,11,14-pentaoxahexadecan-16-yloxy)morphinan]: the IC50 is over 1 µM at mu opioid receptor (MOR) (setting [1]) and over 10 µM at NMDA receptor.

On to `COc1cccc(C(=O)Nc2ccc3c(c2)[C@@]24CCCC[C@H]2[C@@H](C3)N(C)CC4)c1` [Compound 25, 3-methoxy-N-((4bR,8aR,9R)-11-methyl-6,7,8,8a,9,10-hexahydro-5H-9,4b-(epiminoethano)phenanthren-3-yl)benzamide], for which the IC50 is over 1 µM at mu opioid receptor (MOR) (setting [1]) and over 10 µM on NMDA receptor.

As to `COCCN1CC[C@]23CCCC[C@H]2[C@H]1Cc1ccc(OC)cc13` [Compound 11, 3-methoxy-17-(2-methoxyethyl)-morphinan], the figures for the IC50 at mu opioid receptor (MOR) and at NMDA receptor were 0.1 to 1 µM and 1 to 10 µM, respectively.

Take `Oc1ccc2c(c1)[C@@]13CCCC[C@H]1[C@@H](C2)N(C1COC1)CC3` [Compound 87, 17-(oxetan-3-yl)morphinan-3-ol]: the figures for the IC50 on mu opioid receptor (MOR) (setting [1]) and at NMDA receptor were over 1 µM and over 10 µM, respectively.

As for `COCCOCCN1CC[C@]23CCCC[C@H]2[C@H]1Cc1ccc(Nc2cncc(F)c2)cc13` [Compound 104, 17-[2-(2-methoxyethoxy)ethyl]-N-(5-fluoro-pyridin-3-yl)morphinan-3-amine], the IC50 on mu opioid receptor (MOR) is 0.01 to 0.1 µM; at NMDA receptor, over 10 µM.

As to `COCCOCCC(=O)Nc1ccc2c(c1)[C@@]13CCCC[C@H]1[C@@H](C2)N(C)CC3` [Compound 79, 3-(2-methoxyethoxy)-N-((4bR,8aR,9R)-11-methyl-6,7,8,8a,9,10-hexahydro-5H-9,4b-(epiminoethano)phenanthren-3-yl)propanamide], the IC50 on mu opioid receptor (MOR) (setting [1]) was over 1 µM; on NMDA receptor, over 10 µM.

Regarding `CN1CC[C@]23CCCC[C@H]2[C@H]1Cc1cc2nnc(N)nc2cc13` [Compound 95, (4aR,5R,12bR)-15-methyl-2,3,4,4a,5,6-hexahydro-1H-5,12b-(epiminoethano)phenanthro[3,2-e][1,2,4]triazin-10-amine], the IC50 is over 1 µM at mu opioid receptor (MOR) (setting [1]) and 1 to 10 µM at NMDA receptor.

On to `COc1cccc(Nc2ccc3c(c2)[C@@]24CCCC[C@H]2[C@@H](C3)N(C)CC4)c1` [Compound 29, N-(3-methoxyphenyl)-17-methylmorphinan-3-amine], for which the IC50 was 0.0001 to 0.01 µM on mu opioid receptor (MOR) and 1 to 10 µM at NMDA receptor.

For `COCCOCCN1CC[C@]23CCCC[C@H]2[C@H]1Cc1ccc(-c2ccoc2)cc13` [Compound 106, (4bR,8aR,9R)-3-(furan-3-yl)-11-(2-(2-methoxyethoxy)ethyl)-6,7,8,8a,9,10-hexahydro-5H-9,4b-(epiminoethano)phenanthrene], the IC50 is 0.1 to 1 µM at mu opioid receptor (MOR) and over 10 µM at NMDA receptor.

Regarding `COCCNC(=O)Nc1nc2cc3c(cc2s1)C[C@@H]1[C@@H]2CCCC[C@]32CCN1C` [Compound 72, 1-(2-methoxyethyl)-3-((4aR,5R,11bR)-14-methyl-2,3,4,4a,5,6-hexahydro-1H-5,11b-(epiminoethano)phenanthro[3,2-d]thiazol-9-yl)urea], the IC50 was over 1 µM on mu opioid receptor (MOR) (setting [1]) and over 10 µM at NMDA receptor.

For `CN1CC[C@]23CCCC[C@H]2[C@H]1Cc1ccc(Nc2cnccn2)cc13` [Compound 55, 17-methyl-N-(pyrazin-2-yl)morphinan-3-amine], the IC50 on mu opioid receptor (MOR) is 0.0001 to 0.01 µM; at NMDA receptor, over 10 µM.

`COCCOCCN1CC[C@]23CCCC[C@H]2[C@H]1Cc1ccc(N)cc13` [Compound 96, (4bR,8aR,9R)-11-(2-(2-methoxyethoxy)ethyl)-6,7,8,8a,9,10-hexahydro-5H-9,4b-(epiminoethano)phenanthren-3-amine]: the half-inhibitory concentration (IC50) was over 1 µM at mu opioid receptor (MOR) (setting [1]) and over 10 µM on NMDA receptor.

Take `COCCOCCNC(=O)c1ccc2c(c1)[C@@]13CCCC[C@H]1[C@@H](C2)N(C)CC3` [Compound 39, N-[2-(2-methoxyethoxy)ethyl]-17-methylmorphinan-3-carboxamide]: the IC50 at mu opioid receptor (MOR) was 0.1 to 1 µM; on NMDA receptor it was over 10 µM.

As to `Oc1ccc2c(c1)[C@@]13CCCC[C@H]1[C@@H](C2)N(CC1CCO1)CC3` (some centres unmarked) [Compound 91, 17-(oxetan-2-ylmethyl)morphinan-3-ol], the IC50 on mu opioid receptor (MOR) lay within 0.0001 to 0.01 µM; at NMDA receptor it was 1 to 10 µM.

Consider `CN1CC[C@]23CCCC[C@H]2[C@H]1Cc1ccc(-c2cnc(N)nc2)cc13` [Compound 52, 5-(17-methylmorphinan-3-yl)pyrimidin-2-amine], for which the results for the IC50 on mu opioid receptor (MOR) (setting [1]) and on NMDA receptor were over 1 µM and 1 to 10 µM, respectively.

`CN1CC[C@]23CCCC[C@H]2[C@H]1Cc1cc2sc(NC(=O)C4CCN(C(=O)OC(C)(C)C)CC4)nc2cc13` [Compound 85, tert-butyl 4-{[(4aR,5R,11bR)-14-methyl-2,3,4,4a,5,6-hexahydro-1H-5,11b-(epiminoethano)phenanthro[3,2-d][1,3]thiazol-9-yl]carbamoyl}piperidine-1-carboxylate]: the IC50 at mu opioid receptor (MOR) (setting [1]) is over 1 µM; on NMDA receptor, over 10 µM.

Take `COc1ccc(NC(=O)Nc2ccc3c(c2)[C@@]24CCCC[C@H]2[C@@H](C3)N(C)CC4)cc1` [Compound 27, 1-(4-methoxyphenyl)-3-(17-methylmorphinan-3-yl)urea]: the results for the IC50 at mu opioid receptor (MOR) and on NMDA receptor were 0.01 to 0.1 µM and 1 to 10 µM, respectively.

Regarding `COCCOc1cc(O)cc2c1C[C@@H]1[C@@H]3CCCC[C@]23CCN1C` [Compound 74, 1-(2-methoxyethoxy)-17-methylmorphinan-3-ol], the IC50 on mu opioid receptor (MOR) (setting [1]) was over 1 µM; on NMDA receptor, over 10 µM.

On to `COCCOCCOCC(=O)Nc1nc2cc3c(cc2s1)C[C@@H]1[C@@H]2CCCC[C@]32CCN1C` [Compound 68, 2-[2-(2-methoxyethoxy)ethoxy]-N— [(4aR,5R,11bR)-14-methyl-2,3,4,4a,5,6-hexahydro-1H-5,11b-(epiminoethano)phenanthro[3,2-d][1,3]thiazol-9-yl]acetamide], for which the IC50 on mu opioid receptor (MOR) (setting [1]) was over 1 µM; at NMDA receptor, 1 to 10 µM.

With `COCCNc1ccc2c(c1)[C@@]13CCCC[C@H]1[C@@H](C2)N(C)CC3` [Compound 59, N-(2-methoxyethyl)-17-methylmorphinan-3-amine], the values for the IC50 on mu opioid receptor (MOR) and on NMDA receptor were 0.1 to 1 µM and 1 to 10 µM, respectively.

With `CN1CC[C@]23CCCC[C@H]2[C@H]1Cc1ccc(Nc2ccncn2)cc13` [Compound 50, 17-methyl-N-(pyrimidin-4-yl)morphinan-3-amine], the IC50 at mu opioid receptor (MOR) was 0.1 to 1 µM; at NMDA receptor, 0.0001 to 0.1 µM.

For the molecule `CN1CC[C@]23CCCC[C@H]2[C@H]1Cc1cc2cccnc2cc13` [Compound 89, (4aR,5R,12bR)-15-methyl-2,3,4,4a,5,6-hexahydro-1H-5,12b-(epiminoethano)naphtho[2,1-g]quinoline], the IC50 at mu opioid receptor (MOR) (setting [1]) lay in the range of 0.1 to 1 µM; at NMDA receptor, 1 to 10 µM.

As to `COCCOCCN1CC[C@]23CCCC[C@H]2[C@H]1Cc1ccc(Nc2nccs2)cc13` [Compound 105, N-((4bR,8aR,9R)-11-(2-(2-methoxyethoxy)ethyl)-6,7,8,8a,9,10-hexahydro-5H-9,4b-(epiminoethano)phenanthren-3-yl)thiazol-2-amine], the IC50 on mu opioid receptor (MOR) is 0.1 to 1 µM; at NMDA receptor it was over 10 µM.

For the molecule `COCCOCCOCCNC(=O)c1ccc2c(c1)[C@@]13CCCC[C@H]1[C@@H](C2)N(C)CC3` [Compound 41, N-{2-[2-(2-methoxyethoxy)ethoxy]ethyl}-17-methylmorphinan-3-carboxamide], the values for the IC50 on mu opioid receptor (MOR) (setting [1]) and on NMDA receptor were over 1 µM and over 10 µM, respectively.

Take `COCCOCCOc1cc(Nc2ccc3c(c2)[C@@]24CCCC[C@H]2[C@@H](C3)N(C)CC4)ccn1` [Compound 67, N-{2-[2-(2-methoxyethoxy)ethoxy]pyridin-4-yl}-17-methylmorphinan-3-amine]: the IC50 on mu opioid receptor (MOR) (setting [1]) was 0.1 to 1 µM; on NMDA receptor, over 10 µM.

As to `COCCOCCN1CC[C@]23CCCC[C@H]2[C@H]1Cc1ccc(Nc2ccncc2)cc13` [Compound 98, 17-[2-(2-methoxyethoxy)ethyl]-N-(pyridin-4-yl)morphinan-3-amine], the IC50 on mu opioid receptor (MOR) and on NMDA receptor was 0.1 to 1 µM in each case.

What is called IC50 is the midpoint of a concentration-inhibition curve.
